Values after ≈ are worked out from the molar mass of the structure shown.
Experiments:
Type in all cases: cell-based
Candida albicans 90028 = test: In vitro antifungal assay (Example IX), microdilution broth, MIC; settings: minimum inhibitory concentration (≥50% inhibition), 35° C., 40-48 h, RPMI1640
Summary of the method: (§1)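 Yeast inocula (2.5×10^3 cells/mL, RPMI1640) were exposed to twofold compound series reaching 2-0.0019 μg/mL final, per CLSI yeast methodology. Incubation at 35° C. ran 40-48 h for Candida albicans 90028 and 72 h for Cryptococcus neoformans H99. MIC endpoints were confirmed by absorbance at 600 nm.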

[1] = system: Cryptococcus neoformans H99; test: as above; settings: minimum inhibitory concentration (≥50% inhibition), 35° C., 72 h, RPMI1640
Summary of the method: as §1

[2] = system: Aspergillus fumigatus MYA3626; test: In vitro antifungal assay (Example IX), microdilution broth, MEC; settings: minimum effective concentration (shortening of hyphae), 35° C., 40-48 h, RPMI1640
Summary of the method: (§2)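 Read-out is the minimum effective concentration: lowest compound level causing shorter hyphae than in DMSO controls, echinocandin-style. Broth microdilution used conidia or spores harvested from agar plates, cleared of mycelium and clumps, at a final 1-2×10^4 spores/mL in RPMI1640.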

[3] = system: Rhizomucor pusillus 46342; test: as above; settings: minimum effective concentration (shortening of hyphae), 35° C., 40-48 h, RPMI1640
Summary of the method: as §2

Cryptococcus gattii = test: In vitro antifungal assay (Example IX), microdilution broth, MIC; settings: minimum inhibitory concentration (≥50% inhibition), 35° C., 72 h (Cryptococcus), RPMI1640
Summary of the method: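 MIC was determined from OD600 after 72 h at 35 °C for Cryptococcus, in RPMI1640 inoculated at 2.5×10^3 cells/mL. Compounds were tested as a 2-fold series from 2 to 0.0019 μg/mL final, added from DMSO intermediates at a 100-fold dilution.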

MIC (Candida albicans 90028) [µg/mL]	MIC [1] [µg/mL]	MIC (Cryptococcus gattii) [µg/mL]	Compound	minimal effective concentration [2] [µg/mL]	minimal effective concentration [3] [µg/mL]
0.1 to 1 (≈ 0.266 to 2.66 µM)	0.1 to 1 (≈ 0.266 to 2.66 µM)	0.1 to 1 (≈ 0.266 to 2.66 µM)	Nc1ncccc1-c1cc(Cc2ccc(OCc3cncc(F)c3)cc2)no1 [compound 115, 3-(3-(4-((5-fluoropyridin-3-yl)methoxy)benzyl)isoxazol-5-yl)pyridin-2-amine]	0.01 to 0.1	> 1
0.1 to 1 (≈ 0.255 to 2.55 µM)	0.01 to 0.1 (≈ 0.0255 to 0.255 µM)	≤ 0.01	Nc1ncccc1-c1cc(Cc2ccc(OCc3ccnc(Cl)c3)cc2)no1 [compound 117, 3-(3-(4-((2-chloropyridin-4-yl)methoxy)benzyl)isoxazol-5-yl)pyridin-2-amine]	0.01 to 0.1	> 1
0.1 to 1 (≈ 0.261 to 2.61 µM)	0.1 to 1 (≈ 0.261 to 2.61 µM)	0.1 to 1 (≈ 0.261 to 2.61 µM)	N#Cc1cccc(COc2ccc(Cc3cc(-c4cccnc4N)on3)cc2)n1 [compound 118, 6-((4-((5-(2-aminopyridin-3-yl)isoxazol-3-yl)methyl)phenoxy)methyl)picolinonitrile]	0.1 to 1	> 1
0.01 to 0.1 (≈ 0.0302 to 0.302 µM)	0.01 to 0.1 (≈ 0.0302 to 0.302 µM)	0.01 to 0.1 (≈ 0.0302 to 0.302 µM)	Nc1ncccc1-c1cc(Cc2ccc(Cc3ccoc3)cc2)no1 [compound 120, 3-(3-(4-(furan-3-ylmethyl)benzyl)isoxazol-5-yl)pyridin-2-amine]	≤ 0.01	0.1 to 1
0.01 to 0.1 (≈ 0.0302 to 0.302 µM)	0.01 to 0.1 (≈ 0.0302 to 0.302 µM)	0.01 to 0.1 (≈ 0.0302 to 0.302 µM)	Nc1ncccc1-c1cc(Cc2ccc(Cc3ccco3)cc2)no1 [compound 121, 3-(3-(4-(furan-2-ylmethyl)benzyl)isoxazol-5-yl)pyridin-2-amine]	≤ 0.01	0.01 to 0.1
≤ 0.01	0.01 to 0.1 (≈ 0.029 to 0.29 µM)	0.01 to 0.1 (≈ 0.029 to 0.29 µM)	Cc1ccc(Cc2ccc(Cc3cc(-c4cccnc4N)on3)cc2)o1 [compound 122, 3-(3-(4-((5-methylfuran-2-yl)methyl)benzyl)isoxazol-5-yl)pyridin-2-amine]	≤ 0.01	0.01 to 0.1
0.01 to 0.1 (≈ 0.03 to 0.3 µM)	0.1 to 1 (≈ 0.3 to 3 µM)	0.01 to 0.1 (≈ 0.03 to 0.3 µM)	Nc1ncccc1-c1cc(Cc2ccc(CC3=CCOC3)cc2)no1 [compound 123, 3-(3-(4-((2,5-dihydrofuran-3-yl)methyl)benzyl)isoxazol-5-yl)pyridin-2-amine]	0.01 to 0.1	> 1
0.01 to 0.1 (≈ 0.0286 to 0.286 µM)	0.01 to 0.1 (≈ 0.0286 to 0.286 µM)	0.01 to 0.1 (≈ 0.0286 to 0.286 µM)	Nc1ncccc1-c1cc(Cc2ccc(Cc3ccc(F)o3)cc2)no1 [compound 124, 3-(3-(4-((5-fluorofuran-2-yl)methyl)benzyl)isoxazol-5-yl)pyridin-2-amine]	0.01 to 0.1	0.01 to 0.1
0.1 to 1 (≈ 0.266 to 2.66 µM)	> 1	> 1	Nc1ncccc1-c1cc(Cc2cnc(SCc3ccccc3)nc2)no1 [compound 125, 3-(3-((2-(benzylthio)pyrimidin-5-yl)methyl)isoxazol-5-yl)pyridin-2-amine]	0.1 to 1	> 1
0.01 to 0.1 (≈ 0.0266 to 0.266 µM)	0.01 to 0.1 (≈ 0.0266 to 0.266 µM)	0.01 to 0.1 (≈ 0.0266 to 0.266 µM)	Nc1ncccc1-c1cc(Cc2ccc(OCc3ccccc3F)nc2)no1 [compound 127, 3-(3-((6-((2-fluorobenzyl)oxy)pyridin-3-yl)methyl)isoxazol-5-yl)pyridin-2-amine]	≤ 0.01	0.1 to 1
0.01 to 0.1 (≈ 0.0276 to 0.276 µM)	≤ 0.01	0.01 to 0.1 (≈ 0.0276 to 0.276 µM)	Nc1ncccc1-c1cc(Cc2ccc(Oc3cccc(F)c3)nc2)no1 [compound 130, 3-(3-((6-(3-fluorophenoxy)pyridin-3-yl)methyl)isoxazol-5-yl)pyridin-2-amine]	0.01 to 0.1	0.1 to 1
0.01 to 0.1 (≈ 0.0276 to 0.276 µM)	0.01 to 0.1 (≈ 0.0276 to 0.276 µM)	0.01 to 0.1 (≈ 0.0276 to 0.276 µM)	Nc1ncccc1-c1cc(Cc2ccc(Oc3ccccc3F)nc2)no1 [compound 131, 3-(3-((6-(2-fluorophenoxy)pyridin-3-yl)methyl)isoxazol-5-yl)pyridin-2-amine]	0.01 to 0.1	0.1 to 1
0.01 to 0.1 (≈ 0.0269 to 0.269 µM)	0.01 to 0.1 (≈ 0.0269 to 0.269 µM)	0.01 to 0.1 (≈ 0.0269 to 0.269 µM)	Nc1ccc(-c2cc(Cc3ccc(OCc4ccccc4)cc3)no2)c(N)n1 [compound 132, 3-(3-(4-(benzyloxy)benzyl)isoxazol-5-yl)pyridine-2,6-diamine]	≤ 0.01	0.1 to 1
0.1 to 1 (≈ 0.265 to 2.65 µM)	0.01 to 0.1 (≈ 0.0265 to 0.265 µM)	0.01 to 0.1 (≈ 0.0265 to 0.265 µM)	Nc1ccc(-c2cc(Cc3ccc(Oc4cccc(F)n4)cc3)no2)c(N)n1 [compound 134, 3-(3-(4-((6-fluoropyridin-2-yl)oxy)benzyl)isoxazol-5-yl)pyridine-2,6-diamine]	0.1 to 1	0.1 to 1
0.1 to 1 (≈ 0.285 to 2.85 µM)	0.01 to 0.1 (≈ 0.0285 to 0.285 µM)	0.1 to 1 (≈ 0.285 to 2.85 µM)	CC(C)=CCOc1ccc(Cc2cc(-c3ccc(N)nc3N)on2)cc1 [compound 135, 3-(3-(4-((3-methylbut-2-en-1-yl)oxy)benzyl)isoxazol-5-yl)pyridine-2,6-diamine]	0.01 to 0.1	0.1 to 1
0.1 to 1 (≈ 0.269 to 2.69 µM)	0.1 to 1 (≈ 0.269 to 2.69 µM)	0.1 to 1 (≈ 0.269 to 2.69 µM)	Nc1ccc(-c2cc(Cc3ccc(CNc4ccccc4)cc3)no2)c(N)n1 [compound 136, 3-(3-(4-((phenylamino)methyl)benzyl)isoxazol-5-yl)pyridine-2,6-diamine]	0.01 to 0.1	0.01 to 0.1
0.01 to 0.1 (≈ 0.0266 to 0.266 µM)	0.1 to 1 (≈ 0.266 to 2.66 µM)	0.01 to 0.1 (≈ 0.0266 to 0.266 µM)	Nc1ncccc1-c1cc(Cc2ccc(COc3cccc(F)n3)cc2)no1 [compound 137, 3-(3-(4-(((6-fluoropyridin-2-yl)oxy)methyl)benzyl)isoxazol-5-yl)pyridin-2-amine]	0.01 to 0.1	> 1
0.01 to 0.1 (≈ 0.0277 to 0.277 µM)	0.1 to 1 (≈ 0.277 to 2.77 µM)	0.01 to 0.1 (≈ 0.0277 to 0.277 µM)	Nc1ncccc1-c1cc(Cc2ccc(Sc3ccccc3)nc2)no1 [compound 186, 3-(3-((6-(phenylthio)pyridin-3-yl)methyl)isoxazol-5-yl)pyridin-2-amine]	0.01 to 0.1	> 1
0.1 to 1 (≈ 0.266 to 2.66 µM)	0.1 to 1 (≈ 0.266 to 2.66 µM)	0.01 to 0.1 (≈ 0.0266 to 0.266 µM)	Nc1ncccc1-c1cc(Cc2ccc(OCc3ccc(F)cc3)nc2)no1 [compound 187, 3-(3-((6-((4-fluorobenzyl)oxy)pyridin-3-yl)methyl)isoxazol-5-yl)pyridin-2-amine]	0.1 to 1	0.1 to 1
> 1	> 1	> 1	Nc1ncccc1-c1cc(Cc2ccc(N3CCC3c3ccccc3)nc2)no1 (stereo not shown) [compound 188, 3-(3-((6-(2-phenylazetidin-1-yl)pyridin-3-yl)methyl)isoxazol-5-yl)pyridin-2-amine]	> 1	0.1 to 1
0.01 to 0.1 (≈ 0.0254 to 0.254 µM)	0.01 to 0.1 (≈ 0.0254 to 0.254 µM)	0.1 to 1 (≈ 0.254 to 2.54 µM)	Nc1ncccc1-c1cc(Cc2ccc(COc3cc(F)ccc3F)cc2)no1 [compound 189, 3-(3-(4-((2,5-difluorophenoxy)methyl)benzyl)isoxazol-5-yl)pyridin-2-amine]	0.01 to 0.1	> 1
0.1 to 1 (≈ 0.243 to 2.43 µM)	0.1 to 1 (≈ 0.243 to 2.43 µM)	0.1 to 1 (≈ 0.243 to 2.43 µM)	Nc1ncccc1-c1cc(Cc2ccc(COc3cc(F)cc(F)c3F)cc2)no1 [compound 190, 3-(3-(4-((2,3,5-trifluorophenoxy)methyl)benzyl)isoxazol-5-yl)pyridin-2-amine]	0.1 to 1	> 1
0.1 to 1 (≈ 0.281 to 2.81 µM)	0.1 to 1 (≈ 0.281 to 2.81 µM)	0.1 to 1 (≈ 0.281 to 2.81 µM)	Nc1ncccc1-c1cc(Cc2ccc(C(=O)c3ccccc3)cc2)no1 [compound 191, (4-((5-(2-aminopyridin-3-yl)isoxazol-3-yl)methyl)phenyl)(phenyl)methanone]	0.01 to 0.1	0.1 to 1
0.1 to 1 (≈ 0.244 to 2.44 µM)	0.1 to 1 (≈ 0.244 to 2.44 µM)	0.1 to 1 (≈ 0.244 to 2.44 µM)	Nc1ncccc1-c1cc(Cc2ccc(CNc3ccc(F)c(F)c3F)cc2)no1 [compound 193, 3-(3-(4-(((2,3,4-trifluorophenyl)amino)methyl)benzyl)isoxazol-5-yl)pyridin-2-amine]	0.01 to 0.1	0.1 to 1
0.1 to 1 (≈ 0.228 to 2.28 µM)	0.01 to 0.1 (≈ 0.0228 to 0.228 µM)	0.01 to 0.1 (≈ 0.0228 to 0.228 µM)	Nc1ncccc1-c1cc(Cc2ccc(OCc3ccnc(Br)c3)nc2)no1 [compound 195, 3-(3-((6-((2-bromopyridin-4-yl)methoxy)pyridin-3-yl)methyl)isoxazol-5-yl)pyridin-2-amine]	0.1 to 1	> 1
0.01 to 0.1 (≈ 0.0255 to 0.255 µM)	0.01 to 0.1 (≈ 0.0255 to 0.255 µM)	0.1 to 1 (≈ 0.255 to 2.55 µM)	Nc1ncccc1-c1cc(Cc2ccc(CNc3cc(F)ccc3F)cc2)no1 [compound 196, 3-(3-(4-(((2,5-difluorophenyl)amino)methyl)benzyl)isoxazol-5-yl)pyridin-2-amine]	0.1 to 1	0.1 to 1

Source: US11512079B2, “Heterocycle substituted pyridine derivative antifungal agents” (Amplyx Pharmaceuticals, Inc., priority 2017, dated 2022)
